Data on eleven compounds can be found in publication PMC5615938 (Toxicology Reports, 2016).

Like-named read-outs stand apart in the source and are kept apart here.

Series [1] addresses Silver catfish (Synodontis eupterus) major hepatic glutathione transferase (seGST). Format: biochemical. The settings on record: pH 6.5, 1 mM CDNB and 1 mM GSH.
Series [2] has as its system Silver catfish (Synodontis eupterus) major hepatic glutathione transferase (seGST). Kind of series: seGST steady state kinetics, GSH-CDNB conjugation. Format: biochemical. The settings on record: for Km: 0.1-1.2 mM GSH and CDNB, one substrate varied, the other kept constant.
Another series concerns GST. The settings on record: cited from earlier work.
For series [3], the system named is Silver catfish (Synodontis eupterus) major hepatic glutathione transferase (seGST). Description: Product and dead-end inhibition studies of seGST. Format: biochemical.
Series [4] has the same test system. Kind of series: Viscosity dependence of seGST kcat/KM. It counts as biochemical. The settings on record: viscosogen added, 25 °C.

For `Nc1c(S(=O)(=O)O)cc(Nc2ccc(Nc3nc(Cl)nc(Nc4ccccc4S(=O)(=O)O)n3)c(S(=O)(=O)O)c2)c2c1C(=O)c1ccccc1C2=O` [Cibracron Blue], the 50% inhibitory concentration (IC50) – broadly, the midpoint of a concentration-inhibition curve – in series [1] came to 0.01 ± 0.001 µM.
Turning to `O=[N+]([O-])c1ccc(Cl)c([N+](=O)[O-])c1` [CDNB, 1-chloro 2,4-dintrobenzene], the Km (usually the substrate concentration at which the rate is half of its maximum) in series [2] (25 °C) stood at 690 ± 170 µM. In series [2] (from secondary plots, GSH-CDNB), the “KIB (E.CDNB + GSH ⇌ E.CDNB.GSH)” value came to 0.48 ± 0.02.
In series [1], `C=C(CC)C(=O)c1ccc(OCC(=O)O)c(Cl)c1Cl` [Ethacrynic acid] came in with an IC50 of 21.3 ± 3.22 µM.
As to `N[C@@H](CCC(=O)N[C@@H](CS)C(=O)NCC(=O)O)C(=O)O` [GSH, Reduced glutathione], the Km in series [2] (25 °C) amounted to 530 ± 50 µM. For the same compound, in series [2] (25 °C, GSH-CDNB conjugation), the “kcat[GSH]” value stood at 44.62 ± 1.124 s⁻¹. For the same compound, in series [2] (from secondary plots, GSH-CDNB), the “KA (E.GSH + CDNB ⇌ E.GSH.CDNB)” value was 0.64 ± 0.04 and the “KIA (E.GSH)” value stood at 0.14 ± 0.01. Also, the “pKa of GSH” value in the series with GST (before lowering by GST) is given as 9.0. Also, in the series with GST (bound to GST), the “pKa of the bound GSH” value is “about 6.5”.
In series [1], `O=C1OC(c2ccc(O)c(S(=O)(=O)O)c2)(c2ccc(O)c(S(=O)(=O)O)c2)c2c(Br)c(Br)c(Br)c(Br)c21` [Bromosulphosptlein, bromosulfophthalein] displayed an IC50 of 47.4 ± 5.67 µM.
On to `[Cl][Sn]([c]1ccccc1)([c]1ccccc1)[c]1ccccc1` [Triphenytin chloride, triphenyltin chloride], for which inhibition in series [1] was half-maximal at 0.05 ± 0.005 µM (IC50).
With `[Cl-].[K+]` [KCl], the “inhibition pattern in double reciprocal plots” value in series [3] (with respect to GSH and with respect to CDNB) is on record as “non-competitive inhibition”.
Turning to `C=CC1=C(C)c2cc3[n-]c(cc4[n-]c(cc5nc(cc1n2)C(C)=C5C=C)c(C)c4CCC(=O)O)c(CCC(=O)O)c3C.[Fe+2]` [Hematin], the IC50 in series [1] stood at 5 ± 0.1 µM.
With `CCCCCCSC[C@H](NC(=O)CC[C@H](N)C(=O)O)C(=O)NCC(=O)O` [s-hexylglutathione], the IC50 in series [1] came to 17.6 ± 1.3 µM.
With `OCC(O)CO` [glycerol, Glycerol], the “catalytic efficiency indicated by the exponential value” in series [4] is 23%. For the same compound, the “exponential value of (kcat/KM)^0/(kcat/KM) versus relative viscosity” value in series [4] (0.1 M potassium phosphate buffer pH 6.5) stood at 0.227.
Consider “1-methyl glutathione [1−methylglutathione]”, for which the Ki in series [3] (read-out: Kis (CDNB varied), CDNB varied) turned out to be 0.16 µM; in series [3] (read-out: Kis (GSH varied), CDNB fixed at 1.0 mM, GSH 0.1-1.0 mM), 0.09 µM. Half-maximal inhibition in series [1] (IC50) required 16.6 ± 1.58 µM.
